Assay results as given in patent US9044389B2, “Isoxazoline derivatives as pesticides” (Novartis AG, priority 2008, dated 2015).

Test system: Rhipicephalus sanguineus nymphs
Assay: Activity in vivo against Rhipicephalus sanguineus nymphs on Mongolian gerbils (spray application)
Conditions: tick number reduction vs placebo, Abbot's formula
Experimental: On day 0, gerbils are treated with the test compound at a given dose by spray application. On day +1 (+2), the animals are infested with nymphs of R. sanguineus. Ticks are left on the animals until full repletion. Seven days after infestation nymphs dropped off fully engorged are collected and counted. Efficacy in killing is expressed as a tick number reduction in comparison with a placebo treated group, using the Abbot's formula.

## Cc1cc(C2=NOC(c3cc(Cl)cc(Cl)c3)(C(F)(F)F)C2)sc1C(=O)NCC(F)(F)F (centres unmarked) [Compound 1.8, 5-[5-(3,5-dichloro-phenyl)-5-trifluoromethyl-4,5-dihydro-isoxazol-3-yl]-3-methyl-thiophene-2-carboxylic acid (2,2,2-trifluoro-ethyl)-amide]
Dose 32 mg/kg
  Efficacy in killing %: 80%

## O=C(NCC(F)(F)F)c1sc(C2=NOC(c3cc(Cl)cc(Cl)c3)(C(F)(F)F)C2)cc1-c1ccccc1 (centres unmarked) [Compound 1.21]
Dose 32 mg/kg
  Efficacy in killing %: 98%

## Cc1cc(C2=NOC(c3cc(Cl)cc(Cl)c3)(C(F)(F)F)C2)sc1C(=O)NCC(=O)NCC(F)(F)F (centres unmarked) [Compound 1.28, 5-[5-(3,5-dichloro-phenyl)-5-trifluoromethyl-4,5-dihydro-isoxazol-3-yl]-3-methyl-thiophene-2-carboxylic acid [(2,2,2-trifluoro-ethylcarbamoyl)-methyl]-amide]
Dose 10 mg/kg
  Efficacy in killing %: 96%

## Cc1cc(C2=NOC(c3cc(Cl)cc(Cl)c3)(C(F)(F)F)C2)sc1C(=O)NCC1CCCO1 (centres unmarked) [Compound 1.29]
Dose 100 mg/kg
  Efficacy in killing %: 92%

## Cc1cc(C2=NOC(c3cc(Cl)cc(Cl)c3)(C(F)(F)F)C2)sc1C(=O)Nc1nc(C(F)(F)F)cs1 (centres unmarked) [Compound 1.31]
Dose 32 mg/kg
  Efficacy in killing %: 100%

## Cc1cc(C2=NOC(c3cc(Cl)cc(Cl)c3)(C(F)(F)F)C2)sc1C(=O)NCc1ccncc1 (centres unmarked) [Compound 1.32]
Dose 100 mg/kg
  Efficacy in killing %: 84%

## Cc1cc(C2=NOC(c3cc(Cl)cc(Cl)c3)(C(F)(F)F)C2)sc1C(=O)Nc1cccnc1 (centres unmarked) [Compound 1.35]
Dose 10 mg/kg
  Efficacy in killing %: 82%

## C#CCNC(=O)CNC(=O)c1sc(C2=NOC(c3cc(Cl)cc(Cl)c3)(C(F)(F)F)C2)cc1C (centres unmarked) [Compound 1.48]
Dose 10 mg/kg
  Efficacy in killing %: 95%

## Cc1cc(C2=NOC(c3cc(Cl)cc(Cl)c3)(C(F)(F)F)C2)sc1C(=O)NCC(=O)NCC#N (centres unmarked) [Compound 1.49]
Dose 3.2 mg/kg
  Efficacy in killing %: 85%

## Cc1cc(C2=NOC(c3cc(Cl)c(Cl)c(Cl)c3)(C(F)(F)F)C2)sc1C(=O)NCC(=O)NCC(F)(F)F (centres unmarked) [Compound 2.4]
Dose 10 mg/kg
  Efficacy in killing %: 90%

## Cc1cc(C2=NOC(c3cc(Cl)c(F)c(Cl)c3)(C(F)(F)F)C2)sc1C(=O)NCC(=O)NCC(F)(F)F (centres unmarked) [Compound 2.5]
Dose 10 mg/kg
  Efficacy in killing %: 90%
